Assays:
Experiment in all cases: relative viability (nuclei count vs DMSO), 5 days (fraction); higher = more cells survive
[1] = system: LU99A
In short: (§1)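 Each reported value is a median over duplicate plates. It expresses relative viability: treated-well nuclei count divided by vehicle-well nuclei count. Lung cancer cell lines in 1536-well plates were dosed by pin tool a day after seeding, alone with one drug or with a fixed anchor-drug dose plus five library-drug doses (not always all listed) in √10 steps, and nuclei were counted after 5 days.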

[2] = system: EPLC-272H
In short: as §1

[3] = system: NCI-H2085
In short: as §1

[4] = system: LC-2-ad
In short: as §1

[5] = system: NCI-H460
In short: as §1

[6] = system: NCI-H1793
In short: as §1

[7] = system: NCI-H1792
In short: as §1

[8] = system: HCC-78
In short: as §1

[9] = system: LXF-289
In short: as §1

[10] = system: NCI-H1915
In short: as §1

[11] = system: NCI-H1944
In short: as §1

[12] = system: NCI-H1666
In short: as §1

[13] = system: SK-LU-1
In short: as §1

[14] = system: NCI-H2009
In short: as §1

[15] = system: NCI-H358
In short: as §1

[16] = system: NCI-H2170
In short: as §1

[17] = system: HOP-62
In short: as §1

[18] = system: COR-L 105
In short: as §1

[19] = system: UMC-11
In short: as §1

[20] = system: HCC-366
In short: as §1

[21] = system: A-427
In short: as §1

## Nc1ccn([C@@H]2O[C@H](CO)[C@@H](O)[C@@H]2O)c(=O)n1 [Cytarabine] + CS(=O)(=O)N1CCN(Cc2cc3nc(-c4cccc5[nH]ncc45)nc(N4CCOCC4)c3s2)CC1 [Pictilisib] (partner 1 µM)
[1]; first compound 0.005 µM
  relative viability: 0.372
[1]; first compound 0.01581 µM
  relative viability: 0.305
[1]; first compound 0.05 µM
  relative viability: 0.282
[1]; first compound 0.1581 µM
  relative viability: 0.308
[1]; first compound 0.5 µM
  relative viability: 0.299
[2]; first compound 0.005 µM
  relative viability: 0.246
[2]; first compound 0.01581 µM
  relative viability: 0.297
[2]; first compound 0.05 µM
  relative viability: 0.242
[2]; first compound 0.1581 µM
  relative viability: 0.187
[2]; first compound 0.5 µM
  relative viability: 0.207
[3]; first compound 0.005 µM
  relative viability: 0.422
[3]; first compound 0.01581 µM
  relative viability: 0.433
[3]; first compound 0.05 µM
  relative viability: 0.401
[3]; first compound 0.1581 µM
  relative viability: 0.367
[3]; first compound 0.5 µM
  relative viability: 0.281
[4]; first compound 0.005 µM
  relative viability: 0.402
[4]; first compound 0.01581 µM
  relative viability: 0.419
[4]; first compound 0.05 µM
  relative viability: 0.361
[4]; first compound 0.1581 µM
  relative viability: 0.212
[4]; first compound 0.5 µM
  relative viability: 0.16
[5]; first compound 0.005 µM
  relative viability: 0.328
[5]; first compound 0.01581 µM
  relative viability: 0.322
[5]; first compound 0.05 µM
  relative viability: 0.226
[5]; first compound 0.1581 µM
  relative viability: 0.106
[5]; first compound 0.5 µM
  relative viability: 0.0854
[6]; first compound 0.005 µM
  relative viability: 0.312
[6]; first compound 0.01581 µM
  relative viability: 0.29
[6]; first compound 0.05 µM
  relative viability: 0.383
[6]; first compound 0.1581 µM
  relative viability: 0.307
[6]; first compound 0.5 µM
  relative viability: 0.194
[7]; first compound 0.005 µM
  relative viability: 0.314
[7]; first compound 0.01581 µM
  relative viability: 0.207
[7]; first compound 0.05 µM
  relative viability: 0.216
[7]; first compound 0.1581 µM
  relative viability: 0.174
[7]; first compound 0.5 µM
  relative viability: 0.188
[8]; first compound 0.005 µM
  relative viability: 0.234
[8]; first compound 0.01581 µM
  relative viability: 0.196
[8]; first compound 0.05 µM
  relative viability: 0.139
[8]; first compound 0.1581 µM
  relative viability: 0.141
[8]; first compound 0.5 µM
  relative viability: 0.128
[9]; first compound 0.005 µM
  relative viability: 0.716
[9]; first compound 0.01581 µM
  relative viability: 0.752
[9]; first compound 0.05 µM
  relative viability: 0.679
[9]; first compound 0.1581 µM
  relative viability: 0.288
[9]; first compound 0.5 µM
  relative viability: 0.304
[10]; first compound 0.005 µM
  relative viability: 0.866
[10]; first compound 0.01581 µM
  relative viability: 0.853
[10]; first compound 0.05 µM
  relative viability: 0.589
[10]; first compound 0.1581 µM
  relative viability: 0.274
[10]; first compound 0.5 µM
  relative viability: 0.233
[11]; first compound 0.005 µM
  relative viability: 0.29
[11]; first compound 0.01581 µM
  relative viability: 0.267
[11]; first compound 0.05 µM
  relative viability: 0.236
[11]; first compound 0.1581 µM
  relative viability: 0.201
[11]; first compound 0.5 µM
  relative viability: 0.189
[12]; first compound 0.005 µM
  relative viability: 0.498
[12]; first compound 0.01581 µM
  relative viability: 0.345
[12]; first compound 0.05 µM
  relative viability: 0.381
[12]; first compound 0.1581 µM
  relative viability: 0.229
[12]; first compound 0.5 µM
  relative viability: 0.205
[13]; first compound 0.005 µM
  relative viability: 0.519
[13]; first compound 0.01581 µM
  relative viability: 0.515
[13]; first compound 0.05 µM
  relative viability: 0.333
[13]; first compound 0.1581 µM
  relative viability: 0.216
[13]; first compound 0.5 µM
  relative viability: 0.216
[14]; first compound 0.005 µM
  relative viability: 0.907
[14]; first compound 0.01581 µM
  relative viability: 0.678
[14]; first compound 0.05 µM
  relative viability: 0.81
[14]; first compound 0.1581 µM
  relative viability: 0.487
[14]; first compound 0.5 µM
  relative viability: 0.224
[15]; first compound 0.005 µM
  relative viability: 0.318
[15]; first compound 0.01581 µM
  relative viability: 0.288
[15]; first compound 0.05 µM
  relative viability: 0.298
[15]; first compound 0.1581 µM
  relative viability: 0.179
[15]; first compound 0.5 µM
  relative viability: 0.155
[16]; first compound 0.01581 µM
  relative viability: 0.257
[16]; first compound 0.05 µM
  relative viability: 0.235
[16]; first compound 0.1581 µM
  relative viability: 0.191
[16]; first compound 0.5 µM
  relative viability: 0.192
[17]; first compound 0.005 µM
  relative viability: 0.741
[17]; first compound 0.01581 µM
  relative viability: 0.469
[17]; first compound 0.05 µM
  relative viability: 0.315
[17]; first compound 0.1581 µM
  relative viability: 0.118
[17]; first compound 0.5 µM
  relative viability: 0.0794
[18]; first compound 0.005 µM
  relative viability: 0.32
[18]; first compound 0.01581 µM
  relative viability: 0.361
[18]; first compound 0.05 µM
  relative viability: 0.312
[18]; first compound 0.1581 µM
  relative viability: 0.311
[18]; first compound 0.5 µM
  relative viability: 0.242
[19]; first compound 0.005 µM
  relative viability: 0.488
[19]; first compound 0.01581 µM
  relative viability: 0.411
[19]; first compound 0.05 µM
  relative viability: 0.318
[19]; first compound 0.1581 µM
  relative viability: 0.175
[19]; first compound 0.5 µM
  relative viability: 0.161
[20]; first compound 0.005 µM
  relative viability: 0.134
[20]; first compound 0.01581 µM
  relative viability: 0.129
[20]; first compound 0.05 µM
  relative viability: 0.0867
[20]; first compound 0.1581 µM
  relative viability: 0.0754
[20]; first compound 0.5 µM
  relative viability: 0.0688
[21]; first compound 0.005 µM
  relative viability: 0.576
[21]; first compound 0.01581 µM
  relative viability: 0.419
[21]; first compound 0.05 µM
  relative viability: 0.314
[21]; first compound 0.1581 µM
  relative viability: 0.178
[21]; first compound 0.5 µM
  relative viability: 0.147

Source: the supplement of paper PMC10307832
